In patent publication US9375436B2, “Androgen treatment in females” (priority 2004, dated 2016):
Where “and” joins values, the source holds several entries; their conditions need not be identical. Identical values can stand only once.

Key:
Type in all cases: in vivo, human
[1] = system: embryos of women undergoing IVF; assay: Pre-implantation genetic diagnosis, euploidy rate by length of DHEA usage (Example 3)
Procedure: In another study (data not shown), patients were analyzed after four weeks of DHEA treatment. Seven patients had embryos tested by pre-implantation genetic diagnosis (PGD). In three women who had PGD after less than four weeks of DHEA usage and a mean age 41.5±5.1 at the time of starting IVF cycles, the euploidy, or normal chromosome number, rate was 2/30 embryos (6.6%). […] There is a mean age difference between patients who underwent IVF after less than four weeks of DHEA usage (mean age 41.5±5.1) and patients who underwent IVF after at least four weeks of DHEA usage (mean age 43.7±1.3).

[2] = Case report: DHEA substitution in probable 17,20-desmolase deficiency (Patient B, Example 5); settings: human, in vivo, oral, normal (130-980), read-out: DHEA level
Procedure: (§1) In a further study, a case of probable 17, 20-desmolase deficiency, resulting in abnormally low estradiol, DHEA, androstenedione and testosterone levels, is presented in a person with a clinical history of, initially, unexplained infertility and, later, prematurely aging ovaries.
(§2) In July of 2003, the patient was started on 25 mg daily of micronized DHEA. After five weeks of treatment, DHEA, DHEA-S and androstenedione levels had normalized into mid-ranges. (Even though androstenedione is partially produced through the activity of 17,20-desmolase from 17-hydroxyprogesterone, part is also derived from DHEA through the activity of 3-beta hydroxysteroid dehydrogenase [Speroff et al., 1999a]. The normalization of androstenedione, after DHEA administration, therefore, also speaks for an underlying 17,20-desmolase defect, and not a 3-beta hydroxysteroid dehydrogenase deficiency.) In the third and fourth month, following the start of DHEA supplementation, the patient ovulated spontaneously with estradiol levels of 268 and 223 pg/ml (Table 2), respectively, measured on the day of LH surge.
(§3) On Jan. 28, 2004, and after DHEA therapy of approximately six months, a fourth IVF cycle was initiated. Their baseline FSH level in that cycle was 9.6 mIU/ml, estradiol 56 pg/ml. Stimulation took place with 300 IU of recombinant FSH (without hMG) and with an agonist flare protocol. […] A triplet pregnancy was established with heart beats. Two, out of the three fetuses lost heart beat spontaneously, and the patient delivered by cesarean section, at term, a healthy singleton infant.

[3] = system: person with prematurely aging ovaries; assay: as above; settings: for Estradiol periovulatory: spontaneous ovulation
Procedure: as §1, §2, §3

[4] = January 2004, 4th IVF cycle start, DHEA approximately six months
[5] = fourth IVF cycle after DHEA therapy of approximately six months

With `C[C@]12CC[C@H](O)CC1=CC[C@@H]1[C@@H]2CC[C@]2(C)C(=O)CC[C@@H]12` [DHEA, Dehydroepiandrosterone] the euploidy rate ([1]; PGD after less than four weeks of DHEA usage, three women, 2/30 embryos) was 6.6%, the euploidy rate ([1]; PGD after more than four weeks of DHEA usage, six patients, 8/27 embryos) was 29.6% and the concentration at 5 months ([2]; 25 mg daily, December 2003, on DHEA) was 278 ng/mL. The concentration at 5 weeks ([2]; July 2003 after DHEA treatment start, 25 mg daily micronized) was 2.96 ng/mL, the Testosterone free ([3]; December 2003, on DHEA, normal (1-21)) was 2 pg/mL and the “Testosterone free and weekly bound” value ([3]; December 2003, on DHEA, normal (3-29)) was 4 ng/dL. For the same compound, the Estradiol baseline [3, 4] was 56 pg/mL, the FSH baseline [3, 4] was 9.6 mIU/ml and the FSH ([3]; January 2004, on DHEA, first value) was 18 mIU/ml. For the same compound, the Androstenedione level ([3]; July 2003 after DHEA treatment start, normal (65-270)) was 121 ng/dL, the Estradiol ([3]; November 2003, on DHEA) was 38 pg/mL and the FSH ([3]; November 2003, on DHEA) was 17 mIU/ml. The Estradiol ([3]; October 2003, on DHEA) was 44 pg/mL, the FSH ([3]; October 2003, on DHEA) was 14.7 mIUI/ml and the Estradiol periovulatory ([3]; October 2003, on DHEA) was 223 pg/mL and 224 pg/mL. For the same compound, the Estradiol periovulatory ([3]; September 2003, on DHEA) was 268 pg/mL, the oocytes retrieved [3, 5] was 8 and the peak estradiol level [3, 5] was 1764 pg/mL.
